Source: patent publication US20190352341A1, “MODIFIED PEPTIDES AND THEIR USE FOR TREATING SYSTEMIC LUPUS ERYTHEMATOSUS” (IMMUPHARMA FRANCE SA, priority 2018, published 2019)
Where “and” joins values, the source holds several entries; their conditions need not be identical. Equal values may be shown once. Numbered stars: 1 amine (or outer) side, 2 acyl side, 3 side chain; on linkers, the order of the positions; unused ones are H or OH. Square brackets hold non-standard residues; d marks the D form. Peptide text beside a SMILES is read from it. ξ: configuration not given here. X1 = CSCC[C@H](NC(=N)[C@H](Cc1c[nH]cn1)N[*:1])C(=O)[*:2]; pS = N[C@@H](COP(=O)(O)O)C(=O)O; Ile(3ξ) = CCC(C)[C@H](N)C(=O)O

Assays:
[1] = test system: SLE patients; test: Clinical trial in SLE patients (SRI-4 response); type: in vivo, human
Protocol: Human patients with SLE were administered the “standard of care” for SLE+placebo or SEQ ID NO.:1 (serine 10 phosphorylated) (“P140”). The P140 peptide was administered in a solution with mannitol; the placebo was a mannitol solution only. Patients were treated for 52 weeks.
Based on the protocol and the commonly accepted study design, there were two groups of patients: (1) patients receiving P140 plus “Standard of Care” and (2) patients receiving placebo plus “Standard of Care”. “Standard of Care” includes treatment with other drugs such as steroids, anti-malarials, methotrexate etc. No patients were treated just with placebo, but all were receiving other drug treatments. The definition of a “responder” is based on the SLE Responder Index (SRI-4) score, which requires a reduction of at least four points in this score. Therefore, patients who improve by less than four points are counted as non-responders, but also no distinction is made between patients who improve by more than 4 points, all being equal “responders”.
The SRI-4 score comprises criteria from three different internationally validated indices, SELENA-SLE Disease Activity Index (SELENA-SLEDAI), Physician Global Assessment (PGA) and the British Isles Lupus Assessment Group (BILAG) 2004. See Luijten, K. M. et al., Autoimmun Rev. 2012 March; 11(5):326-9.

[2] = test system: Balb/c mice; test: 31-day HDM-induced asthma model, airway response to methacholine (Flexivent); type: in vivo, mouse; conditions: for Crs / Ers / Rrs: individual mice
Protocol: The aim of this study was to evaluate the effect of the P140 phosphopeptide administered systemically (intravenously) in a 31-day model of HDM-induced asthma in mice. The P140 phosphopeptide was solubilized in sterile water (Braun) and 10× concentrate sterile saline was added to adjust osmolarity to 300 mosm. Osmolarity was controlled with a micro osmometer (Löser, type 15) and validated (303 mosm). The P140 phosphopeptide was used in vivo at the dose of 4 mg/kg by intravenous (i.v.) routes. Control animals received equivalent volumes (2 ml/kg) of saline (Table 8).
Nine-week-old male Balb/c mice were sensitized by intranasal (i.n.) administration of HDM extract (Stallergenes): 1 μg in 25 μl saline on days 0, 1, 2, 3, 4, and 10 μg on days 14 and 21. Mice were challenged by i.n. administration of HDM (1 μg) and/or saline on days 28, 29 and 30. Mice were treated by i.v. injection (2 ml/kg) of P140 or solvent on day 25 (see FIG. 14).
Airway response to Methacholine (Flexivent®). On day 31, airway responses to PBS then methacholine were assessed using a forced oscillation technique (Flexivent®, SCIREQ, Montreal, Canada) as described (Daubeuf et al, Bioprotocol, 645, 2013). Mice were anesthetized with an intraperitoneal injection of xylasine (Rompun®; 1 mg/kg), followed fifteen minutes later by an intraperitoneal injection of pentobarbital sodium (3.64 mg/Kg). The trachea was exposed and an 18-gauge metal needle was inserted into the trachea. Airways were connected to a computer-controlled small animal ventilator, and quasi-sinusoidally ventilated with a tidal volume of 10 ml/Kg at a frequency of 150 breaths/min and a positive end-expiratory pressure of 2 cm H2O to achieve a mean respiratory volume close to that of spontaneous breathing. After baseline measurement, each mouse was challenged for 10 sec with an aerosol of PBS generated with an in-line nebulizer and administered directly through the ventilator. Then, aerosolized methacholine (MCh) at 50 mg/ml was administered for 10 sec. The effect of methacholine was calculated as the peak response, i.e. the mean of the three maximal values integrated for calculation of airway resistance (R, cm H20·s·mL^−1), elastance (E, cm H20·mL^−1) and compliance (C, mL·cm H20^−1).
All mice were sensitized to HDM on days 0, 1, 2, 3, 4, 14, 21, and challenged either with saline ([…]) or HDM (challenge with allergen). Results are presented as means±SEM. Differences between groups were tested for statistical significance using Student's t test for inflammatory cells and a two-way ANOVA followed by Bonferroni post-test for airway responses.

[3] = HDM-challenged (HDM + P140), first of two unheaded values (presumably PBS)
[4] = HDM-challenged (HDM + P140), second of two unheaded values (presumably MCh 50 mg/mL)
[5] = chronic asthma (saline-challenged), methacholine 50 mg/ml, P140 i.v. 4 mg/kg day 25
[6] = saline-challenged (chronic asthma), first of two unheaded values (presumably PBS)
[7] = saline-challenged (chronic asthma), second of two unheaded values (presumably MCh 50 mg/mL)

Question: Which “Response rate (SRI-4)” value ([1]; Anti dsDNA+ European study population, placebo 48.8%) does the source give for `CCC(C)[C@H](NC(=O)[C@H](Cc1ccccc1)NC(=O)[C@H](C)NC(=O)[C@H](Cc1ccc(O)cc1)NC(=O)CNC(=O)[C@H](CCCNC(=N)N)NC(=O)[C@@H]1CCCN1C(=O)[C@H](CCCCN)NC(=O)CNC(=O)[C@H](COP(=O)(O)O)NC(=O)[C@H](CCCNC(=N)N)NC(=O)[C@H](CCCCN)NC(=O)[C@H](CO)NC(=O)[C@H](Cc1ccc(O)cc1)NC(=O)[C@@H](NC(=O)[C@H](CCSC)NC(=N)[C@H](Cc1c[nH]cn1)NC(=O)[C@@H](NC(=O)[C@@H](N)CCCNC(=N)N)C(C)CC)C(C)C)C(=O)N[C@@H](CCC(=O)O)C(=O)N[C@@H](Cc1ccc(O)cc1)C(=O)O` (stereo partly drawn) [Compound P140] (H-R[Ile(3ξ)][X1]VYSKR[pS]GKPRGYAF[Ile(3ξ)]EY-OH) here?
Answer: Its value is 71.1%.

Question: What about the “Response rate (SRI-4)” value ([1]; Anti dsDNA+ patients, full study population, 52 weeks, plus standard of care, placebo 47.3%) of the same compound?
Answer: Its value is 61.5%.

Question: What about the “Patients in full remission” value ([1]; Anti dsDNA+ patients, none in the placebo group) of the same compound?
Answer: Its value is 7.6%.

Question: What about the Tolerability ([1]; SLE patients, 52 weeks) of the same compound?
Answer: The Tolerability was “well tolerated”.

Question: What about the Crs [2, 3] of the same compound?
Answer: The Crs was 0.0554 mL/cmH2O and 0.0514 mL/cmH2O and 0.0528 mL/cmH2O and 0.0566 mL/cmH2O and 0.0492 mL/cmH2O and 0.0458 mL/cmH2O and 0.0552 mL/cmH2O and 0.0589 mL/cmH2O.

Question: And the Ers [2, 3]?
Answer: Its Ers is 18.0582 cmH2O/mL and 19.4433 cmH2O/mL and 18.9515 cmH2O/mL and 17.6781 cmH2O/mL and 20.3326 cmH2O/mL and 21.8367 cmH2O/mL and 18.1106 cmH2O/mL and 16.9723 cmH2O/mL.

Question: And the Rrs [2, 3]?
Answer: The Rrs was 0.6405 cmH2O · s/mL and 0.6092 cmH2O · s/mL and 0.7972 cmH2O · s/mL and 0.5185 cmH2O · s/mL and 0.6804 cmH2O · s/mL and 0.6365 cmH2O · s/mL and 0.4744 cmH2O · s/mL and 0.5456 cmH2O · s/mL.

Question: And the Crs [2, 4]?
Answer: Its Crs is 0.0146 mL/cmH2O and 0.0075 mL/cmH2O and 0.0062 mL/cmH2O and 0.0065 mL/cmH2O and 0.0101 mL/cmH2O and 0.0060 mL/cmH2O and 0.0138 mL/cmH2O and 0.0081 mL/cmH2O.

Question: What about the Ers [2, 4] of the same compound?
Answer: Its Ers is 79.8018 cmH2O/mL and 148.4985 cmH2O/mL and 188.1151 cmH2O/mL and 219.9720 cmH2O/mL and 125.7688 cmH2O/mL and 173.4582 cmH2O/mL and 72.6033 cmH2O/mL and 131.8035 cmH2O/mL.

Question: And the Rrs [2, 4]?
Answer: The Rrs was 5.6421 cmH2O · s/mL and 10.3886 cmH2O · s/mL and 11.9654 cmH2O · s/mL and 10.5419 cmH2O · s/mL and 8.8810 cmH2O · s/mL and 13.0087 cmH2O · s/mL and 7.0705 cmH2O · s/mL and 9.7688 cmH2O · s/mL.

Question: And the “Airway resistance, elastance or compliance” value ([2]; allergen (HDM)-challenged mice, vs solvent group)?
Answer: The value was “no effect”.

Question: What about the “Airway compliance, change vs solvent group” value [2, 5] of the same compound?
Answer: The value was “+115%”.

Question: What about the “Elastance, change vs solvent group” value [2, 5] of the same compound?
Answer: Its value is −65%.

Question: And the “Airway resistance, change vs solvent group” value ([2]; chronic asthma (saline-challenged), methacholine 50 mg/ml, P140 i.v. 4 mg/kg day 25, non-significant)?
Answer: The value was −42%.

Question: And the Crs [2, 6]?
Answer: The Crs was 0.0545 mL/cmH2O and 0.0498 mL/cmH2O and 0.0569 mL/cmH2O and 0.0541 mL/cmH2O and 0.0650 mL/cmH2O.

Question: And the Ers [2, 6]?
Answer: The Ers was 18.3671 cmH2O/mL and 20.0811 cmH2O/mL and 17.5777 cmH2O/mL and 18.4893 cmH2O/mL and 15.3975 cmH2O/mL.

Question: What about the Rrs [2, 6] of the same compound?
Answer: Its Rrs is 0.5590 cmH2O · s/mL and 0.8945 cmH2O · s/mL and 0.5926 cmH2O · s/mL and 0.8074 cmH2O · s/mL and 0.4418 cmH2O · s/mL.

Question: And the Crs [2, 7]?
Answer: The Crs was 0.0304 mL/cmH2O and 0.0132 mL/cmH2O and 0.0380 mL/cmH2O and 0.0238 mL/cmH2O and 0.0370 mL/cmH2O.

Question: And the Ers [2, 7]?
Answer: The Ers was 33.3720 cmH2O/mL and 84.9688 cmH2O/mL and 26.3200 cmH2O/mL and 42.4174 cmH2O/mL and 28.6047 cmH2O/mL.

Question: What about the Rrs [2, 7] of the same compound?
Answer: Its Rrs is 4.1067 cmH2O · s/mL and 9.4002 cmH2O · s/mL and 2.2229 cmH2O · s/mL and 4.0926 cmH2O · s/mL and 2.1844 cmH2O · s/mL.

Question: And the “Baseline airway resistance, elastance and compliance after PBS inhalation” value ([2]; saline-challenged mice, P140 i.v. 4 mg/kg day 25, vs solvent-treated mice)?
Answer: Its value is “no effect on any parameter”.
